# Measurements from PMC10064822, “The importance of including the C-terminal domain of PTP1B1-400 to identify potential antidiabetic inhibitors” (Journal of Enzyme Inhibition and Medicinal Chemistry, 2023).
# Read-outs that look alike come from different tables or passages of the source.
# Assays:
# PTP1B1-298 = PTP1B1-298 ref [36]; cited from earlier work
# PTP1B1-393 = PTP1B1-393 ref [36]; cited from earlier work
# PTP1B1-405 = PTP1B1-405 ref [48]; cited from earlier work
# PTP1B1-321 = conditions: cited from earlier work
# PTP1B1-301 = PTP1B1-301 ref [47]; cited from earlier work
# hPTP1B1-400 = target: T1, hPTP1B1-400 (Homo sapiens, UniProt P18031); assay: Enzyme kinetics of hPTP1B1-400 inhibition; format: biochemical; set-up: the three purified hPTP1B constructs (hPTP1B1-285, hPTP1B1-321, and hPTP1B1-400); His-tag (N); made in house; host or cells: E. coli BL21 (DE3)
# T1 sequence (P18031 1-400): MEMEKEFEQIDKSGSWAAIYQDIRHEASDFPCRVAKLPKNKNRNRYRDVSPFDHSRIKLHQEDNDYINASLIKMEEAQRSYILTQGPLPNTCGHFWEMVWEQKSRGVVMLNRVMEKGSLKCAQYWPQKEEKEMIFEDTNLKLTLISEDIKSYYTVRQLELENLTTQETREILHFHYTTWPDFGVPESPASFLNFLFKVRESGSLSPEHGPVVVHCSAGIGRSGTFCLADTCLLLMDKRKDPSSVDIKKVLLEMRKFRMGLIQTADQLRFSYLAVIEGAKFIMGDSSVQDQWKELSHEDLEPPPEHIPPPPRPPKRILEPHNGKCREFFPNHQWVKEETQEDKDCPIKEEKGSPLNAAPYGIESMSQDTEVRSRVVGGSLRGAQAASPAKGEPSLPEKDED
# Procedure: The negative control was prepared with the enzyme and substrate in the absence of an inhibitor. The experiments were performed in triplicate. […] (2) y= Vmax x/Km + x,
# Vmax is the maximum velocity, x is the […] concentration, and Km is the Michaelis constant.
# (3) y= Vmax (x)/Km (1+(I/Ki))+x (4) y= Vmax (x)/((1+I)/(α Ki)) /x+Km ((1+I)/ Ki)/(1+I)/(α Ki)), (5) y= Vmax (x)/ x+(Km/(1+I)/Ki)
# Vmax is the maximum velocity, x is the substrate concentration, I is the inhibitor concentration, Km is the Michaelis constant, Ki is the inhibition constant, and α=Vmax without inhibitor/Vmax with inhibitor.
molecule,measurement,setting,value
CC1=C(O)C(=O)C=C2C1=CC=C1[C@@]2(C)CC[C@@]2(C)[C@@H]3C[C@](C)(C(=O)O)CC[C@]3(C)CC[C@]12C [Celastrol],IC50,PTP1B1-298,4.8 µM
same,Inhibition type,PTP1B1-298,Non-competitive
same,Kd,PTP1B1-298,6.1 µM
same,IC50,PTP1B1-393,2.1 µM
same,Inhibition type,PTP1B1-393,Non-competitive
COC(=O)CC[C@@H](C)[C@H]1CC[C@H]2[C@@H]3[C@H](O)C[C@H]4C[C@H](NCCCCNCc5ccccn5)CC[C@]4(C)[C@H]3CC[C@]12C [DPM-1001],IC50,PTP1B1-405,0.1 µM
same,Inhibition type,PTP1B1-405,Non-competitive
same,Kd,PTP1B1-405,0.075 µM
"O=C(/C=C/c1ccc(O)c(O)c1)O[C@@H](C(=O)O)[C@@H](OC(=O)/C=C/c1ccc(O)c(O)c1)C(=O)O [Cichoric acid (CHA), Cichoric acid]",Inhibition type,PTP1B1-321; PTP1B1-321 ref [39],Non-competitive
same,Inhibition type,PTP1B1-301,Competitive
same,Ki,PTP1B1-301,1400 µM
"O=C(O)C(=O)Nc1ccccc1C(=O)O [2-(Oxaloamino) benzoic acid (OBA), 2-(oxaloamino) benzoic acid]",Inhibition type,PTP1B1-321; PTP1B1-321 ref [37],Competitive
same,Ki,PTP1B1-321; PTP1B1-321 ref [37],200 µM
2-(hydroxy-phenoxy) acetic acid,Inhibition type,PTP1B1-321; PTP1B1-321 ref [38],Competitive
same,Ki,PTP1B1-321; PTP1B1-321 ref [38],9 µM
COc1ccc(-n2ncc3c2C(C)(C)[C@@H]2CC[C@]4(C)[C@H](C(=O)C=C5[C@@H]6C[C@@](C)(C(=O)O)CC[C@]6(C)CC[C@]54C)[C@@]2(C)C3)cc1 [5 b],Type of inhibition,"hPTP1B1-400; hPTP1B1-400, pNPP 0.1-0.5 mM, best fit by R^2",Uncompetitive
same,Ki,"hPTP1B1-400; hPTP1B1-400, pNPP substrate",3.42 ± 0.2 µM
same,Vmax,"hPTP1B1-400; hPTP1B1-400, pNPP substrate, fit of inhibition model",0.87 ± 0.03
"CC1CCC2(C(=O)O)CCC3(C)C(=CCC4C5(C)C(O)C(=O)C(O)C(C)(C)C5CCC43C)C2C1(C)O (stereo not drawn) [1β,3α,19α-trihydroxy-2-oxours-12-en-28-oic acid]",IC50,PTP1B1-321; PTP1B1-321 ref [49],13.2 µM
same,Inhibition type,PTP1B1-321; PTP1B1-321 ref [49],Non-competitive
same,Ki,PTP1B1-321; PTP1B1-321 ref [49],10.8 µM
"O=C(/C=C/c1ccc(O)c(O)c1)O[C@@H]1C[C@](O)(C(=O)O)C[C@@H](O)[C@H]1O [CGA, chlorogenic acid]",IC50,PTP1B1-321; PTP1B1-321 ref [39],9.82 µM
same,Inhibition type,PTP1B1-321; PTP1B1-321 ref [39],Non-competitive
same,Inhibition type,PTP1B1-301,Non-competitive
same,Ki,PTP1B1-301,8200 µM
